{"source": "patent US8710049B2", "about": "“Diaminocyclohexane compounds and uses thereof” (Bristol-Myers Squibb Company, priority 2011, dated 2014)", "data": [{"target": "T1, Y4 receptor (Homo sapiens, UniProt P50391)", "T1 sequence (P50391 whole entry)": "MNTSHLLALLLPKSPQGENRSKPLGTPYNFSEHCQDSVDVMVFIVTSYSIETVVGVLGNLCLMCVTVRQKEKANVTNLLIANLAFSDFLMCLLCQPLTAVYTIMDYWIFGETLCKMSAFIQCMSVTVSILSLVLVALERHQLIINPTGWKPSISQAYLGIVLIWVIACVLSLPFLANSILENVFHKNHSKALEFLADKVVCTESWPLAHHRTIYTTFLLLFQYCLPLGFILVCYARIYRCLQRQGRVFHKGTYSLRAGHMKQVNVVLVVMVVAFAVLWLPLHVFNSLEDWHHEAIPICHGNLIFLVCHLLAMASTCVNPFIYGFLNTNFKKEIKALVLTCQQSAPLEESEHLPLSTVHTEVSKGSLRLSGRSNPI", "assay": "NPY4 cAMP HTRF Agonist Assay", "format": "cell-based", "design": "expressed in transfected cells", "conditions": "human Y4 stable CHO clonal cells; inhibitory cAMP assay with Forskolin and IBMX, 30 minutes at room temperature", "protocol": "NPY4 cAMP HTRF Agonist Assay\nThe functionality of the compound at Y4 receptor was analyzed using an inhibitory cAMP assay (CISBIO, HTRF cAMP kit #62AM4PEC) to measure the Gi activation by Y4 agonism.\nThe human Y4 stable CHO clonal cells were maintained in culture medium (F-12 containing 10% Fetal Bovine Serum, […] GENETICIN®, […] Zeocin). Before the experiment, 5 μL of 1 uM Forskolin (Sigma, # F6886) and 100 uM IBMX (Sigma, #15879) in PBS buffer were added into 384-well plates (PE, Proxi-plate) that were pre-dotted with […] compounds. The cells were removed from the flasks by Cellstripper, counted and adjusted to 1.0×10^6 cells/mL in PBS buffer, and added 5 μL/well (5000 cells/well) into the above 384-well plates. The cells were then covered and incubated for 30 minutes at room temperature. After incubation, 5 μL/well of D2-conjugate in HTRF lysis buffer was first added, followed by adding 5 μL/well of anti-cAMP Cryptate in HTRF lysis buffer. The plates were incubated for another 1 hour at room temperature and read on the EnVision Multilabel Plate Reader.", "units": {"EC50": "nM"}, "values": [{"molecule": "O=C(Nc1ccccc1)N[C@@H]1CCCC[C@H]1N[C@H]1CCCN(c2ccc([N+](=O)[O-])cc2)C1", "note": "[Example 1, 1-((1R,2R)-2-((S)-1-(4-Nitrophenyl)piperidin-3-ylamino)cyclohexyl)-3-phenyl urea]", "EC50": 81}, {"molecule": "Cc1ccc(COC(=O)N[C@@H]2CCCC[C@H]2N[C@H]2CCCN(c3ccc(C(F)(F)F)cc3)C2)cc1", "note": "[Example 63]", "EC50": 515}, {"molecule": "COc1ccc(COC(=O)N[C@@H]2CCCC[C@H]2N[C@H]2CCCN(c3ccc(C#N)cc3)C2)cc1", "note": "[Example 34, 4-Methoxybenzyl (1R,2R)-2-((S)-1-(4-cyanophenyl)piperidin-3-ylamino)cyclohexylcarbamate]", "EC50": 575}, {"molecule": "O=C(Nc1ccccc1)N[C@@H]1CCCC[C@H]1N[C@H]1CCCN(c2ccc([N+](=O)[O-])cc2)CC1", "note": "[Example 52, 1-((1R,2R)-2-((S)-1-(4-Nitrophenyl)azepan-4-ylamino)cyclohexyl)-3-phenylurea]", "EC50": 2890}, {"molecule": "N#Cc1ccc(N2CCC[C@H](N[C@@H]3CCCC[C@H]3NC(=O)Nc3cccc(O)c3)C2)cc1", "note": "[Example 36, 1-((1R,2R)-2-((S)-1-(4-Cyanophenyl)piperidin-3-ylamino)cyclohexyl)-3-(3-hydroxyphenyl)urea]", "EC50": 610}, {"molecule": "O=C(Nc1cc(C(F)(F)F)cc(C(F)(F)F)c1)N[C@@H]1CCCC[C@H]1N[C@H]1CCCN(c2ccc(C(F)(F)F)cc2)C1", "note": "[Example 89]", "EC50": 2340}, {"molecule": "O=C(Nc1ccc(OC(F)(F)F)cc1)N[C@@H]1CCCC[C@H]1N[C@H]1CCCN(c2ccc([N+](=O)[O-])cc2)C1", "note": "[Example 3, 1-((1R,2R)-2-((S)-1-(4-Nitrophenyl)piperidin-3-ylamino)cyclohexyl)-3-(4-(trifluoromethoxy)phenyl)urea]", "EC50": 46}, {"molecule": "N#Cc1ccc(N2CCC[C@H](N[C@@H]3CCCC[C@H]3NC(=O)OCc3ccc(OC(F)(F)F)cc3)C2)cc1", "note": "[Example 16, 4-(Trifluoromethoxy)benzyl (1R,2R)-2-((S)-1-(4-cyanophenyl)piperidin-3-ylamino)cyclohexylcarbamate]", "EC50": 72}, {"molecule": "N#Cc1ccc(N2CCC[C@H](N[C@@H]3CCCC[C@H]3NC(=O)Nc3ccc(C(F)(F)F)cc3)C2)cc1", "note": "[Example 56, 1-((1R,2R)-2-((S)-1-(4-Cyanophenyl)piperidin-3-ylamino)cyclohexyl)-3-(4-(trifluoromethyl)phenyl)urea]", "EC50": 3620}, {"molecule": "Cc1nnc(-c2ccc(N3CCC[C@H](N[C@@H]4CCCC[C@H]4NC(=O)OCc4ccccc4)C3)cc2)o1", "note": "[Example 7, Benzyl (1R,2R)-2-((S)-1-(4-(5-methyl-1,3,4-oxadiazol-2-yl)phenyl)piperidin-3-ylamino)cyclohexylcarbamate]", "EC50": 72}, {"molecule": "N#Cc1cc(N2CCC[C@H](N[C@@H]3CCCC[C@H]3NC(=O)Nc3ccccc3)C2)ccn1", "note": "[Example 45, 1-((1R,2R)-2-((S)-1-(2-Cyanopyridin-4-yl)piperidin-3-ylamino)cyclohexyl)-3-phenylurea]", "EC50": 1460}, {"molecule": "Cn1cc(CC(=O)N[C@@H]2CCCC[C@H]2N[C@H]2CCCN(c3ccc(C#N)cc3)C2)c2ccccc21", "note": "[Example 10, N-((1R,2R)-2-((S)-1-(4-Cyanophenyl)piperidin-3-ylamino)cyclohexyl)-2-(1-methyl-1H-indol-3-yl)acetamide]", "EC50": 330}, {"molecule": "C[C@]1(N[C@@H]2CCCC[C@H]2NC(=O)OCc2ccccc2)CCCN(c2ccc([N+](=O)[O-])cc2)C1", "note": "[Example 58, Benzyl (1R,2R)-2-((S)-3-methyl-1-(4-nitrophenyl)piperidin-3-ylamino)cyclohexylcarbamate]", "EC50": 10}, {"molecule": "O=C(N[C@@H]1CCCC[C@H]1N[C@H]1CCCN(c2ccc(-c3nc4ccccc4o3)cc2)C1)OCc1ccccc1", "note": "[Example 43, Benzyl (1R,2R)-2-((S)-1-(4-(benzo[d]oxazol-2-yl)phenyl)piperidin-3-ylamino)cyclohexylcarbamate]", "EC50": 1400}, {"molecule": "CCOC(=O)c1ccc(N2CC[C@H](N[C@@H]3CCCC[C@H]3NC(=O)OCc3ccccc3)C2)cc1", "note": "[Example 32, Ethyl 4-((S)-3-((1R,2R)-2-(benzyloxycarbonylamino)cyclohexylamino)pyrrolidin-1-yl)benzoate]", "EC50": 540}, {"molecule": "O=C(Nc1ccc(OC(F)(F)F)cc1)N[C@@H]1CCCC[C@H]1N[C@H]1C[C@@H]2C[C@H]1N(c1ccc([N+](=O)[O-])cc1)C2", "note": "[Example 4, 1-((1R,2R)-2-((1R,4R,6S)-2-(4-Nitrophenyl)-2-azabicyclo[2.2.1]heptan-6-ylamino)cyclohexyl)-3-(4-(trifluoromethoxy)phenyl)urea]", "EC50": 25}]}, {"target": "T1, Y4 receptor", "assay": "not given", "conditions": "background statement; cited from earlier work", "values": [{"molecule": "PYY: naturally secreted 36 amino acid, C-terminally amidated PP-fold peptide", "affinity for Y4 receptor": "nanomolar affinity"}]}]}
